Laboratory results reported in US7057052B2, “Heterocyclic quinones as pharmaceutical agents” (Duke University, priority 2002, dated 2006).
Where two headings read alike, the source gives them in different places.

Tests used:
Type in all cases: biochemical
[1] = target: T1, Cdc25A (Homo sapiens, UniProt P30304); test: Cdc25A phosphatase inhibition screen at 50 μM; conditions: read-out: Percent Inhibition at 50 uM compound, Cdc25 A
T1 sequence (P30304 1-524): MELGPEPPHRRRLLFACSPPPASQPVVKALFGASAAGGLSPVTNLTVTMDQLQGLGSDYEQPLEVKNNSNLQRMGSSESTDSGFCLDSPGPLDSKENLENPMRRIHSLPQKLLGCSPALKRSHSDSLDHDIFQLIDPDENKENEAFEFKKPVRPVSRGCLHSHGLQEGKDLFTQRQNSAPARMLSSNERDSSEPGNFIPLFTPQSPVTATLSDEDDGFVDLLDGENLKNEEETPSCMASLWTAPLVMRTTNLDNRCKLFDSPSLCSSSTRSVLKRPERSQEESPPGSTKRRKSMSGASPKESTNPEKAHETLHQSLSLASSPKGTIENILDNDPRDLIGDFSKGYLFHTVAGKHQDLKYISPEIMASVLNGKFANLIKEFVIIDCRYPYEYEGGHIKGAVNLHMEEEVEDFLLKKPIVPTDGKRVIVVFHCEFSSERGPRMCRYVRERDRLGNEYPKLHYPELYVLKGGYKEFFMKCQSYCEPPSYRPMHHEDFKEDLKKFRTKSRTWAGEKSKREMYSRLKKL
Protocol: (§1) Using procedures known to those skilled in the art, the compounds listed in Table 3 were screened against Cdc25A, Cdc25B, and Cdc25C at 50 μM. […] To analyze these effects further, the compounds were then screened against Cdc25B in a 3 pt. IC-50, using 1, 7 and 50 μM. Several of the compounds were also screened with an 8 pt. IC-50 process, using 0.1–10 μM, allowing determination of Hill slopes.

[2] = target: T2, Cdc25B (Homo sapiens, UniProt P30305); test: Cdc25B phosphatase inhibition (50 μM screen, 3 pt. and 8 pt. IC-50); conditions: for IC50: Cdc25B; for inhibition at 50 µM: read-out: Percent Inhibition at 50 uM compound, Cdc25 B
T2 sequence (P30305 1-580): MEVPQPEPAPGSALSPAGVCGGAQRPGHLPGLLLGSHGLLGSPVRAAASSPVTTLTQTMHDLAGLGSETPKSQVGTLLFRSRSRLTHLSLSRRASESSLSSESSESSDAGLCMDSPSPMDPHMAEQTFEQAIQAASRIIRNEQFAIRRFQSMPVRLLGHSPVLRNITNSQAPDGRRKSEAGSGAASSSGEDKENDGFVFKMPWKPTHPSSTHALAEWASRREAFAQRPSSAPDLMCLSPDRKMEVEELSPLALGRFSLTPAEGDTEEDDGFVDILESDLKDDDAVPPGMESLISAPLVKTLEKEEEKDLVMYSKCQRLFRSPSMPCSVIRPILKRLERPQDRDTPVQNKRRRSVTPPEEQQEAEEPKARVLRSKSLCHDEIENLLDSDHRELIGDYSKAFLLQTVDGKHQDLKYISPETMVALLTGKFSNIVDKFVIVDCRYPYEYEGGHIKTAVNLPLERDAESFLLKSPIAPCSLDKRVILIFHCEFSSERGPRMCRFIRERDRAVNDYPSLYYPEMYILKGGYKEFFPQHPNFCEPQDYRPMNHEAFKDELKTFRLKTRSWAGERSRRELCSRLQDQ
Protocol: as §1

[3] = target: T3, Cdc25C (Homo sapiens, UniProt P30307); test: Cdc25C phosphatase inhibition screen at 50 μM; conditions: read-out: Percent Inhibition at 50 uM compound, Cdc25 C
T3 sequence (P30307 1-473): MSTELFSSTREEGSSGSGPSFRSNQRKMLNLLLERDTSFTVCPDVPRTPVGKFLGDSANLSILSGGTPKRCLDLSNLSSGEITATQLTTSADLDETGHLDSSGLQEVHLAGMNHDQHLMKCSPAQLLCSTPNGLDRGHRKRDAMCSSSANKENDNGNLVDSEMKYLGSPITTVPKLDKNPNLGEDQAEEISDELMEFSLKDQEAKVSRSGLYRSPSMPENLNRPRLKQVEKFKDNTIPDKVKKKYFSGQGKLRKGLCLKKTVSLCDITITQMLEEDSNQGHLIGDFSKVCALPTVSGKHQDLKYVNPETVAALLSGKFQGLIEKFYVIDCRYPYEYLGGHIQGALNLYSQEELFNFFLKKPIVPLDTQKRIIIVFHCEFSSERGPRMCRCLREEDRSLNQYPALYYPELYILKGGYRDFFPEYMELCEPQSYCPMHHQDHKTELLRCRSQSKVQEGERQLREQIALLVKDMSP
Protocol: as §1

[4] = 3 pt. IC-50 using 1, 7 and 50 μM, read-out: IC50 (3 pt)
[5] = 8 pt. IC-50 using 0.1–10 μM, read-out: IC50 (8 pt)

Row | Compound | inhibition at 50 µM [1] [%] | IC50 [2, 4] [µM] | IC50 [2, 5] [µM] | inhibition at 50 µM [2] [%] | inhibition at 50 µM [3] [%]
1 | O=C1C=C(O)C(=O)C(c2c[nH]c3cc(Cl)ccc23)=C1O [5B, 2,5-dihydroxy-3-(6-chloro-1H-indol-3-yl)-[1,4]-benzoquinone] | 99 | 2.4 |  | 92 | 81
2 | Cc1ccc2c(C3=C(O)C(=O)C=C(O)C3=O)c[nH]c2c1 [5D, 2,5-dihydroxy-3-(6-methyl-1H-indol-3-yl)-[1,4]-benzoquinone] | 80 | 32.3 |  | 16 | 28
3 | COC1=CC(=O)C(OC)=C(c2c[nH]c3c(F)cccc23)C1=O [5E, 2,5-dimethoxy-3-(7-fluoro-1H-indol-3-yl)-[1,4]-benzoquinone] | 29 | 125 |  | 67 | 68
4 | CC(C)=CCC/C(C)=C/Cc1cccc2c(C3=C(O)C(=O)C=C(O)C3=O)c[nH]c12 [6C, 2,5-dihydroxy-3-(7-geranyl-1H-indol-3-yl)-[1,4]-benzoquinone] | 99 | 0.1 | 0.5 | 95 | 96
5 | CC(C)=CCCC(C)=CCCC(C)=CCc1cccc2c(C3=C(O)C(=O)C=C(O)C3=O)c[nH]c12 [6D, 2,5-dihydroxy-3-(7-farnecyl-1H-indol-3-yl)-[1,4]-benzoquinone] | 86 | 0.1 | 0.5 | 89 | 85
6 | Cc1ccc2[nH]c(C)c(C3=C(O)C(=O)C=C(O)C3=O)c2c1 [7C, 2,5-dihydroxy-3-(2,5-dimethyl-1H-indol-3-yl)-[1,4]-benzoquinone] | 61 | 16.5 |  | 20 | 25
7 | COc1ccc2[nH]c(C)c(C3=C(O)C(=O)C=C(O)C3=O)c2c1 [7D, 2,5-dihydroxy-3-(2-methyl-5-methoxy-1H-indol-3-yl)-[1,4]-benzoquinone] | 0 | 126 |  | 0 | 31
8 | Cc1[nH]c2ccc(Cl)cc2c1C1=C(O)C(=O)C=C(O)C1=O [7E, 2,5-dihydroxy-3-(2-methyl-5-chloro-1H-indol-3-yl)-[1,4]-benzoquinone] | 91 | 52.2 |  | 60 | 81
9 | Cc1ccc2c(C3=C(O)C(=O)C=C(O)C3=O)c(C)[nH]c2c1 [7F, 2,5-dihydroxy-3-(2,6-dimethyl-1H-indol-3-yl)-[1,4]-benzoquinone] | 46 | 207 |  | 16 | 0
10 | Cc1[nH]c2c(C)cccc2c1C1=C(O)C(=O)C=C(O)C1=O [7G, 2,5-dihydroxy-3-(2,7-dimethyl-1H-indol-3-yl)-[1,4]-benzoquinone] | 20 | 38.5 |  | 0 | 0
11 | O=C1C=C(O)C(=O)C(c2c[nH]c3cc4c(cc23)OCO4)=C1O [7H, 2,5-dihydroxy-3-(5,6-methylenedioxy-1H-indol-3-yl)-[1,4]-benzoquinone] | 96 | 3.7 |  | 88 | 63

Continued, values first:

Row | inhibition at 50 µM [1] [%] | IC50 [2, 4] [µM] | IC50 [2, 5] [µM] | inhibition at 50 µM [2] [%] | inhibition at 50 µM [3] [%] | Compound
12 | 91 | 2 | 6.8 | 48 | 90 | O=C1C=C(O)C(=O)C(c2c[nH]c3cc(F)ccc23)=C1O [5A, 2,5-dihydroxy-3-(6-fluoro-1H-indol-3-yl)-[1,4]-benzoquinone]
13 | 89 | 1.7 |  | 97 | 92 | O=C1C=C(O)C(=O)C(c2c[nH]c3cc(OCc4ccccc4)ccc23)=C1O [5C, 2,5-dihydroxy-3-(6-benzyloxy-1H-indol-3-yl)-[1,4]-benzoquinone]
14 | 92 | 38 |  | 23 | 54 | O=C1C=C(O)C(=O)C(c2c[nH]c3c(Cl)cccc23)=C1O [5F, 2,5-dihydroxy-3-(7-chloro-1H-indol-3-yl)-[1,4]-benzoquinone]
15 | 93 | 2.1 |  | 45 | 88 | O=C1C=C(O)C(=O)C(c2c[nH]c3c(Br)cccc23)=C1O [5G, 2,5-dihydroxy-3-(7-bromo-1H-indol-3-yl)-[1,4]-benzoquinone]
16 | 60 | 4.2 |  | 0 | 1 | Cc1cccc2c(C3=C(O)C(=O)C=C(O)C3=O)c[nH]c12 [5H, 2,5-dihydroxy-3-(7-methyl-1H-indol-3-yl)-[1,4]-benzoquinone]
17 | 93 | 14.1 |  | 23 | 79 | CCCc1cccc2c(C3=C(O)C(=O)C=C(O)C3=O)c[nH]c12 [6A, 2,5-dihydroxy-3-(7-propyl-1H-indol-3-yl)-[1,4]-benzoquinone]
18 | 100 | 2.1 |  | 99 | 84 | CC(C)=CCc1cccc2c(C3=C(O)C(=O)C=C(O)C3=O)c[nH]c12 [6B, 2,5-dihydroxy-3-(7-prenyl-1H-indol-3-yl)-[1,4]-benzoquinone]
19 | 98 | 1.7 |  | 97 | 98 | O=C1C=C(O)C(=O)C(c2c[nH]c3c(Cc4ccccc4)cccc23)=C1O [6E, 2,5-dihydroxy-3-(7-benzyl-1H-indol-3-yl)-[1,4]-benzoquinone]
20 | 90 | 0.6 | 1.1 | 97 | 94 | Cc1ccccc1Cc1cccc2c(C3=C(O)C(=O)C=C(O)C3=O)c[nH]c12 [6F, 2,5-dihydroxy-3-[7-(2-methyl-benzyl)-1H-indol-3-yl]-[1,4]-benzoquinone]
21 | 96 | 2.1 |  | 33 | 37 | CC(C)(C)c1cccc2c(C3=C(O)C(=O)C=C(O)C3=O)c[nH]c12 [6G, 2,5-dihydroxy-3-(7-tert-butyl-1H-indol-3-yl)-[1,4]-benzoquinone]
22 | 98 | 1.4 |  | 92 | 91 | O=C1C=C(O)C(=O)C(c2c[nH]c3c(-c4ccccc4)cccc23)=C1O [6H, 2,5-dihydroxy-3-(7-phenyl-1H-indol-3-yl)-[1,4]-benzoquinone]
23 | 36 | 79.5 |  | 15 | 13 | COc1cccc2c(C3=C(O)C(=O)C=C(O)C3=O)c[nH]c12 [7A, 2,5-dihydroxy-3-(7-methoxy-1H-indol-3-yl)-[1,4]-benzoquinone]
24 | 98 | 1.6 |  | 97 | 85 | O=C1C=C(O)C(=O)C(c2c[nH]c3c(OCc4ccccc4)cccc23)=C1O [7B, 2,5-dihydroxy-3-(7-benzyloxy-1H-indol-3-yl)-[1,4]-benzoquinone]
